The test system of one data set is Aβ1-42. The experiment in a line: In vitro cleavage assay of Aβ1-42 by purified CatB (SELDI-TOF MS, western blot, electron microscopy). It is filed as biochemical. The protocol:
(§1) Aβ1-42 and Aβ1-40 were from rPeptide (Athens, Ga.). Aβ powders lyophilized with hexafluoroisopropanol were reconstituted in dry dimethylsulfoxide (Sigma) at a concentration of 5 mM. Aggregated Aβ1-42 was prepared based on protocols developed in previous studies (Dahlgren et al., 2002; Lambert et al., 1998). For protofibrillar Aβ1-42 preparations, DMEM/F-12 was added to achieve a final peptide concentration of 100 μM and incubated at 4° C. for 24 h. For fibrillar conditions, 10 mM HCl was added to achieve a final peptide concentration of 100 μM and incubated for 24 h at 37° C. For unaggregated conditions (fresh Aβ), the 5 mM Aβ in […] was diluted directly into cell-culture medium. For Aβ1-40 aggregation, Aβ1-40 was reconstituted in H2O at a concentration of 5 mg/ml, and incubated for one week at 37° C.
Aβ1-42 and Aβ1-40 samples were characterized by negative-staining electron microscopy (JEOL 1230, Peabody, Mass.). Samples were prepared with “matured” carbon-coated grids and 2% potassium phosphotungstate, pH 6.5, using the drop method (Hamilton et al., 1980), and examined at 80 KV with a condenser aperture of 200 μm and an objective aperture of 50 μm. Images were obtained with a Gatan Ultrascan USC1000 digital camera (Gatan, Warrendale, Pa.).
(§2) Different amounts of purified CatB from human liver (Sigma) were preactivated with 4 mM cysteine at room temperature for 5 min in assay buffer, pH 6.0 or 7.0 after adjustment (Cathepsin B Activity Assay Kit, EMD Biosciences). Then, 20 ng of fresh, protofibrillar, or fibrillar Aβ1-42 was added and incubated at 37° C. for 120 min. All samples were run in parallel with and without the specific CatB inhibitor CA074. CatB-induced peptidase cleavage of Aβ1-42 was detected with mass spectrometry. Briefly, 5 μl of the reaction mixture was applied to an NP-20 normal-phase chip (Ciphergen Biosystems, Fremont, Calif.), and the spots were washed with water and air-dried. Twenty percent α-cyano-4-hydroxycinnamic acid in 50% acetonitrile, 0.5% trifluoroacetic acid (2×0.5 μl) was applied, and the chips were allowed to dry. Samples were analyzed in a PBS ITC SELDI-TOF mass spectrometer (Ciphergen) as an average of 160 shots for each spot. The system was calibrated daily with All-in-One peptide standards (Ciphergen) and synthetic Aβ1-42.
(§3) The products were also analyzed by western blotting on acid-urea gels with an anti-Aβ antibody (3D6) as described (DeMattos et al., 2001; Esposito et al., 2004) or on a Tricine SDS-PAGE. Briefly, 10 μl of the reaction mixture were resolved on 16% tricine gels and transferred to nitrocellulose membranes. Membranes were labeled with 21F12 (1:2000, Elan Pharmaceuticals), an antibody specific for Aβ1-42, to detect low MW Aβ1-42 oligomers. Since 21F12 was unable to detect higher MW assemblies, 3D6 (1:2000, Elan) was also used for immunoblotting. After incubation with an HRP-conjugated sheep anti-mouse IgG (1:2000; Amersham) secondary antibody, blots were developed with an ECL system (Perkin Elmer).

The test system of a further data set is CatB in N2A cells. In words: N2A cells treated with Aβ peptides: CatB mRNA (quantitative RT-PCR) and CatB activity. Format: cell-based, murine. The settings on record: 20 μM; for CatB enzymatic activities / CatB mRNA levels: nonaggregated peptide, 24 h. How it is done:
(§4) Unless otherwise noted, all cell culture supplies, medium, and antibiotics were from Invitrogen (Carlsbad, Calif.). The murine neuronal cell line N2A was maintained in Dulbecco's modified Eagle's medium (DMEM) with 10% heat-inactivated fetal bovine serum (FBS), 100 U/ml penicillin G, and 100 μg/ml streptomycin at 37° C. in a humidified atmosphere containing 5% CO2. Before treatment, the medium was replaced with Neurobasal A medium supplemented with N2, and the cells were treated with fresh Aβ1-42 or Aβ1-40 at various concentrations for 24 h.
as §1
(§5) CatB activities in N2A cells or in hippocampus of hAPP mice and their littermate controls were quantified with the Innozyme Cathepsin B Activity Assay Kit (EMD Biosciences), according to the manufacturer's instructions. Cells or hippocampi were lysed in lysis buffer in the absence of proteinase inhibitors, preactivated with 4 mM cysteine, and incubated with the synthetic substrate Z-Arg-Arg AMC at 37° C. for 30 min. Released free AMC was determined fluorometrically as above. The enzymatic activities inhibited by CA074 were defined as CatB-specific activities. Protein concentrations were measured with the BCA protein assay kit (Pierce) and used to normalize CatB activities.
Expression of CatB was measured by quantitative RT-PCR. Total RNA in N2A cells was isolated with Trizol reagent (Invitrogen). After treatment with RNase-free DNase (Ambion) for 30 min at 37° C., total RNA (60 ng/ml) was reverse-transcribed with random hexamers and oligo d(T) primers. The expression of CatB relative to GAPDH was determined with SYBR green dye chemistry and an ABI Prism 7700 sequence detector (Applied Biosystems, Foster City, Calif.), as recommended by the manufacturer. Primer quality was verified by dissociation curve analysis, the slopes of standard curves, and reactions without RT. The following primers were used: mouse CatB (forward 5′-[…]-3′ (SEQ ID NO:7); reverse 5′-[…]-3′ (SEQ ID NO:8)) and mouse GAPDH (forward 5′-[…]-3′ (SEQ ID NO:9); reverse 5′-[…]-3′ (SEQ ID NO:10)).

The target of data set [1] is T1, purified CatB from human liver (Homo sapiens, UniProt P07858).
T1 construct: purified CatB from human liver (Sigma); purchased Sigma; host or cells: human liver (tissue-purified)
The experiment in a line: Inhibition of CatB-induced Aβ1-42 cleavage by CA074 in the in vitro cleavage assay. Format: biochemical. The protocol: as §2, §3

The test system of data set [2] is cathepsin B activity in neuronal cells (N2a). In words: CatB activity assay in N2a cells treated with indomethacin. Format: cell-based, murine. The settings on record: indomethacin 25 μM-75 μM, 18-24 h. The protocol:
as §4, §5
Neurobiatoma cell N2a cells were treated with indomethacin (25 μM-75 μM) for 18-24 h before being harvested for CatB activity assay.

Turning to “CatB: purified CatB from human liver (Sigma), preactivated with cysteine”, the “amounts of high-molecular-weight Aβ assemblies” value in the data set on Aβ1-42 (Tricine SDS-PAGE, CatB 1-2 μg/ml) is “marked decrease”. Also, in the data set on Aβ1-42 (Tricine SDS-PAGE, antibody specific for Aβ1-42), the “levels of low-MW Aβ1-42 oligomers and monomers” value is “also reduced”. Further, the “proteolytic products from fresh (nonaggregated) Aβ1-42” value in the data set with Aβ1-42 (cell-free, pH 6.0, CatB 100-2500 ng/ml, SELDI-TOF) was “dose-dependent generation of Aβ1-40, Aβ1-38, and Aβ1-33”. The “amount of fibrillar structures of preformed Aβ1-42 fibrils” value with Aβ1-42 (electron microscopy) was “did reduce the amount of fibrillar structures”. In addition, the “ability to cleave Aβ, especially nonaggregated (fresh) Aβ” value in the data set with Aβ1-42 (neutral pH (~7.0)) is given as “markedly reduced”. Besides, the “cleavage of protofibrillar Aβ1-42” value with Aβ1-42 (pH 6.0) is on record as “cleaved by CatB as efficiently as nonaggregated preparations”.
For the compound “Aβ1-40: amyloid-β peptide 1-40 from rPeptide; tested nonaggregated and preaggregated”, in the data set with CatB in N2A cells, the CatB enzymatic activities entry was “little or no effect” and the “CatB mRNA levels” value is listed as “little or no effect”. In addition, in the data set on CatB in N2A cells (preaggregated peptide), the CatB activity entry is “modest but significant increase”.
In the case of “Aβ1-42: amyloid-β peptide 1-42 from rPeptide”, in the data set with CatB in N2A cells, the CatB enzymatic activities entry is on record as “markedly increased” and the “CatB mRNA levels” value was “markedly increased”.
In the case of `CCCNC(=O)[C@H]1O[C@@H]1C(=O)N[C@H](C(=O)N1CCC[C@H]1C(=O)O)[C@@H](C)CC` [CA074], the “effect of the inhibitor on CatB-induced decrease of Aβ assemblies” value in data set [1] (Tricine SDS-PAGE) is listed as “significantly diminished such effects”. In addition, the “effect of the inhibitor on CatB-induced reduction of Aβ1-42 fibrils” value in data set [1] (electron microscopy) is on record as “inhibition with CA074”. Moreover, the “CatB-induced truncations of Aβ1-42 in the presence of the inhibitor” value in data set [1] (pH 6.0, SELDI-TOF) is “No truncations occurred”.
As to `COc1ccc2c(c1)c(CC(=O)O)c(C)n2C(=O)c1ccc(Cl)cc1` [indomethacin], the CatB activity entry in data set [2] is listed as “significant increase in CatB activity in a dose-dependent manner”.

For the origin of these results see US8388953B2, “Method of increasing cathepsin B-induced cleavage of amyloid-β peptides” (The J. David Gladstone Institutes, priority 2006, dated 2013).
